Where two headings read alike, the source gives them in different places.
Legend:
[1] = biological target: T1, Serotonin 5-HT1A receptor (Homo sapiens, UniProt P08908); assay: GTPγS Scintillation Proximity Assay, agonist and antagonist mode; format: biochemical
T1 sequence (P08908 1-422): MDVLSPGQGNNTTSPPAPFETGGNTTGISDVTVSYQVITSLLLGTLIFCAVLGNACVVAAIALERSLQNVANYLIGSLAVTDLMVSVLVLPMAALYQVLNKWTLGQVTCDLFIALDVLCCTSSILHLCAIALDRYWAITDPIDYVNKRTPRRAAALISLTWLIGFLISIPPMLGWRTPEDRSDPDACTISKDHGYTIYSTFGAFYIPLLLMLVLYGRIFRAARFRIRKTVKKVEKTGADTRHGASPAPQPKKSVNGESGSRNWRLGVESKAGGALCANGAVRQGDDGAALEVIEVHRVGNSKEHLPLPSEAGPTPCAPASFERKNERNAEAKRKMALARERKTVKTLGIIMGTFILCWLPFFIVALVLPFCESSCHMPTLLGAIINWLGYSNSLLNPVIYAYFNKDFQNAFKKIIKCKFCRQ
Method: (§1) Antagonist and agonist activities were determined using a GTPγS Scintillation Proximity Assay. The assay was prepared as follows: Membrane extracts were prepared from recombinant human Dopamine D2L, D3; Serotonin 5-HT1A, 5-HT1B, 5-HT1D and 5-HT1F receptors.
(§2) Samples were tested by proprietary biological assays by Ogeda S. A., Euroscreen FAST Business Unit, Rue Adrienne Bolland, 47 B-6041 Gosselies, Belgium. Each protein assay was prepared using the following conditions.
5-HT1A • Assay buffer: 20 mM HEPES pH 7.4; 100 mM NaCl, 10 μg/ml saponin, 3 mM MgCl2, 0.1% protease-free BSA; • Membranes: recombinant 5-HT1A membrane extracts thawed on ice and diluted in assay buffer to give 1 mg/ml (10 μg/well) and kept on ice; • GDP: diluted in assay buffer to give a 3 μM final assay concentration; • Beads: PVT-WGA (Perkin Elmer, RPNQ001), diluted in assay buffer at 50 mg/ml (0.5 mg/well); and • GTPγ^35S: (PerkinElmer NEG030X), diluted in assay buffer to give 0.1 nM;
Membranes were mixed with GDP (volume:volume 1:1) and incubated for at least 15 min on ice. In parallel, GTPγ[^35S] is mixed with the beads (volume:volume 1:1) just before starting the reaction.
To determine agonist activity, the following reagents were added in the wells of an Optiplate (Perkin Elmer): 50 μL of test or reference ligand, 10 μL of assay buffer, 20 μl of the membranes:GDP mix, and 20 μL of the GTPγ[^35S]:beads mix. EC50 values were used to determine whether a compound acted as an agonist.
To determine antagonist activity, the following reagents were added in the wells of an Optiplate (Perkin Elmer): 50 μL of test or reference ligand, 20 μL of the membranes:GDP mix, then the plate is incubated 15 minutes at room temperature. After incubation, 10 μL of reference agonist at historical EC80 (final concentration) was added, followed by 20 μL of the GTPγ[^35S]:beads mix.
The plates were covered with a top seal, mixed on an orbital shaker for 2 min, and then incubated for 1 hour at room temperature. Then the plates were centrifuged for 10 min at 2000 rpm, incubated at room temperature 1 hour and counted for 1 min/well with a PerkinElmer TopCount reader. IC50 values were used to determine whether a compound acted as an antagonist.

[2] = biological target: T2, Serotonin 5-HT1F receptor (Homo sapiens, UniProt P30939); assay: as above; format: biochemical
T2 sequence (P30939 1-366): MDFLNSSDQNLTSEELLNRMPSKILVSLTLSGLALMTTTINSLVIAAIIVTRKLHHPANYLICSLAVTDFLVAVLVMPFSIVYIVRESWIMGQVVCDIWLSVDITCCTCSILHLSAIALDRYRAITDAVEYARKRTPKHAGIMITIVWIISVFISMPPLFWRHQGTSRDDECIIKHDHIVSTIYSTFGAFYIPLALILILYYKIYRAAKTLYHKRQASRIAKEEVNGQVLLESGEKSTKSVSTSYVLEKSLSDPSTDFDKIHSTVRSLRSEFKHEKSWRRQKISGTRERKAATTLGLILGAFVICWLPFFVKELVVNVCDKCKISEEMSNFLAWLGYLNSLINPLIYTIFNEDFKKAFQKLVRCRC
Method: as §1, §2
5-HT1F • Assay buffer: 20 mM HEPES pH 7.4; 100 mM NaCl, 10 μg/ml saponin, 1 mM MgCl2; • Membranes: recombinant 5-HT1F membrane extracts thawed on ice and diluted in assay buffer to give 0.5 mg/ml (5 μg/well) and kept on ice; • GDP: diluted in assay buffer to give a 3 μM final assay concentration; • Beads: PVT-WGA (Perkin Elmer, RPNQ001), diluted in assay buffer at 50 mg/ml (0.5 mg/well); and • GTPγ^35S: (PerkinElmer NEG030X), diluted in assay buffer to give 0.1 nM.
Membranes were mixed with GDP (volume:volume 1:1) and incubated for at least 15 min on ice. […]
The plates were covered with a top seal, mixed on an orbital shaker for 2 min, and then incubated for 1 hour at room temperature. Then the plates were centrifuged for 10 min at 2000 rpm, incubated at room temperature 1 hour and counted for 1 min/well with a PerkinElmer TopCount reader. […]

[3] = antagonist mode, bound stated, read-out: IC50 value for the Serotonin 5-HT1A receptor
[4] = membrane extracts, vs reference agonist at EC80, read-out: Antagonist Activity (IC50), 5-HT1A

| SMILES | IC50 [1, 3] [µM] | IC50 [1, 4] [µM] | EC50 ([1]; agonist mode, bound stated, read-out: EC50 value for the Serotonin 5-HT1A receptor) [µM] | EC50 ([1]; membrane extracts, read-out: Agonist Activity (EC50), 5-HT1A) [µM] | EC50 ([2]; agonist mode, bound stated, read-out: EC50 value for the Serotonin 5-HT1F receptor) [µM] | EC50 ([2]; membrane extracts, read-out: Agonist Activity (EC50), 5-HT1F) [µM] |
| --- | --- | --- | --- | --- | --- | --- |
| CCN(CC(F)(F)F)C(=O)N[C@H]1C[C@@H]2c3cccc4[nH]c(C5CC5)c(c34)C[C@H]2N(C)C1 [Compound A17H, 3-((6aR,9S,10aR)-5-cyclopropyl-7-methyl-4,6,6a,7,8,9,10,10a-octahydroindolo[4,3-fg]quinolin-9-yl)-1-ethyl-1-(2,2,2-trifluoroethyl)urea] | < 1 | 0.59 |  |  |  |  |
| CCN(CC)C(=O)N[C@H]1C[C@@H]2c3cccc4[nH]c(Br)c(c34)C[C@H]2N(C)C1 [Compound A8H, 3-((6aR,9S, 10aR)-5-bromo-7-methyl-4,6,6a,7,8,9,10,10a-octahydroindolo[4,3-fg]quinolin-9-yl)-1,1-diethylurea] | < 1 | 0.16 | < 1 | 0.031 |  |  |
| CC[C@@H](CO)NC(=O)[C@@H]1C[C@@H]2c3cccc4c3c(c(C3CC3)n4C)C[C@H]2N(C)C1 [Compound D13H, (6aR,9R,10aR)-5-cyclopropyl-N—((S)-1-hydroxybutan-2-yl)-4,7-dimethyl-4,6,6a,7,8,9,10,10a-octahydroindolo[4,3-fg]quinoline-9-carboxamide] |  |  |  |  | < 1 | 0.26 |
